US20040121946A9, “Inducing cellular immune responses to her2/neu using peptide and nucleic acid compositions” (priority 2002, published 2004)
Where no end group is shown, it is not given here.

Experiments:
DRB1*0101 (DR1) = DRB1*0101 (DR1) (Homo sapiens, UniProt P01903+P01911, A100R/D57E/F55L/F60I/F76Y/I96L/L162R/M171V/P40L/Q125E/R42F/V115G/Y59C); test: HLA class II peptide binding assay, purified HLA; settings: unit not given
[1] = tested on: HLA-DR molecules (DR1, DR4w4, DR7, DRB5*0101, DRB1*1501, DRB1*1101, DRB1*0802, DRB1*1302); test: DR supertype cross-reactive binding; design: species or system human; settings: number of DR1, DR4w4, DR7 bound, Table XXVIII
DRB1*0701 (DR7) = DRB1*0701 (DR7) (Homo sapiens, UniProt P01903+P01911, A100R/A102G/A103Q/D57E/D86V/E43K/F76Y/K127E/L162R/M171V/P40G/Q125H/Q99D/R33Q/R42Y/R54Q/S133A/S66F/T210M/V115G/Y107V/Y59L/Y89S); test: HLA class II peptide binding assay, purified HLA; settings: unit not given
DRB1*0401 (DR4w4) = DRB1*0401 (DR4w4) (Homo sapiens, UniProt P01903+P01911, A100K/A169T/F76Y/I96L/K127E/L162R/M171V/N62H/P40V/Q125Y/R42H/S133A/S149N/S66Y/V115G/V209L/W38E); test: HLA class II peptide binding assay, purified HLA; settings: unit not given
[2] = Table XIX, DR supermotif peptides
[3] = Table XXa, DR 3a motif peptides

DR1 binding data (DRB1*0101 (DR1); [2]) | DR147 Cross-binding [1] | DR7 binding data (DRB1*0701 (DR7); [2]) | DR4w4 binding data (DRB1*0401 (DR4w4); [2]) | DR1 binding data (DRB1*0101 (DR1); [3]) | DR7 binding data (DRB1*0701 (DR7); [3]) | DR4w4 binding data (DRB1*0401 (DR4w4); [3]) | Compound
−0.0005 | 0 | −0.0011 | −0.0032 |  |  |  | IKVLRENTSPKANKE
−0.0005 | 0 | −0.0011 | −0.0032 |  |  |  | PSTFKGTPTAENPEY
−0.0005 | 0 | −0.0011 | 0.0230 | −0.0005 | −0.0011 | 0.0230 | QGFFCPDPAPGAGGM
0.7900 | 1 | 0.0078 | 0.0350 |  |  |  | CC[C@H](C)[C@H](NC(=O)[C@@H]1CCCN1)C(=O)N[C@@H](CCCCN)C(=O)N[C@@H](Cc1c[nH]c2ccccc12)C(=O)N[C@@H](CCSC)C(=O)N[C@@H](C)C(=O)N[C@@H](CC(C)C)C(=O)N[C@@H](CCC(=O)O)C(=O)N[C@@H](CO)C(=O)N[C@H](C(=O)N[C@@H](CC(C)C)C(=O)N[C@@H](CCCNC(=N)N)C(=O)N[C@@H](CCCNC(=N)N)C(=O)N[C@@H](CCCNC(=N)N)C(=O)N[C@@H](Cc1ccccc1)C(=O)O)[C@@H](C)CC
−0.0005 | 0 | −0.0011 | −0.0032 |  |  |  | TDGYVAPLTCSPQPE

The next lines start with the compound.

Compound | DR1 binding data (DRB1*0101 (DR1); [2]) | DR147 Cross-binding [1] | DR7 binding data (DRB1*0701 (DR7); [2]) | DR4w4 binding data (DRB1*0401 (DR4w4); [2]) | DR1 binding data (DRB1*0101 (DR1); [3]) | DR7 binding data (DRB1*0701 (DR7); [3]) | DR4w4 binding data (DRB1*0401 (DR4w4); [3])
CC(C)C[C@H](NC(=O)[C@H](C)NC(=O)[C@H](Cc1ccc(O)cc1)NC(=O)[C@H](CC(N)=O)NC(=O)[C@H](CC(=O)O)NC(=O)[C@H](CCC(=O)O)NC(=O)[C@H](Cc1ccccc1)NC(=O)[C@H](CC(C)C)NC(=O)[C@H](CCC(N)=O)NC(=O)[C@@H](N)[C@@H](C)O)C(=O)N[C@@H](C)C(=O)N[C@H](C(=O)N[C@@H](CC(C)C)C(=O)N[C@@H](CC(=O)O)C(=O)N[C@@H](CC(N)=O)C(=O)O)C(C)C | 0.0530 | 1 | 0.0160 | −0.0025 |  |  | 
QPDVRPQPPSPREGP | 0.0007 | 0 | −0.0011 | −0.0032 |  |  | 
ITDFGLARLLDIDET | 0.0048 | 0 | −0.0011 | −0.0032 |  |  | 
LLVVVLGVVFGILIK | −0.0008 | 0 | 0.0019 | −0.0025 |  |  | 
CSCC[C@H](NC(=O)[C@H](CC(=O)O)NC(=O)[C@@H](NC(=O)CN)[C@@H](C)O)C(=O)N[C@@H](CCCCN)C(=O)N[C@@H](CC(C)C)C(=O)N[C@@H](CCCNC(=N)N)C(=O)N[C@@H](CC(C)C)C(=O)N1CCC[C@H]1C(=O)N[C@@H](C)C(=O)N[C@@H](CO)C(=O)N1CCC[C@H]1C(=O)N[C@@H](CCC(=O)O)C(=O)N[C@H](C(=O)N[C@@H](Cc1c[nH]cn1)C(=O)O)[C@@H](C)O | 0.0010 | 0 | −0.0013 | −0.0025 |  |  | 
VCPLHNQEVTAEDGT | −0.0004 | 0 | −0.0013 | −0.0025 |  |  | 
VVGILLVVVLGVVFG | −0.0004 | 0 | −0.0013 | −0.0025 |  |  | 
